Data on 27 compounds can be found in ChEMBL document CHEMBL6092176, “Discovery of pyrazolo[1,5-a]pyrimidine derivatives targeting TLR4-TLR4∗ homodimerization via AI-powered next-generation screening” (Eur J Med Chem, 2024).

As usually defined, the IC50 is the concentration needed to halve the response being measured. A high value points to weaker potency in that assay. One may read the pIC50 as −log10 of the IC50, conventionally taken in molar units. For orientation: Cmax means the highest concentration seen after dosing. In general, Tmax refers to the time from dosing to the highest level. The MRT last is the average time that molecules of a dose stay in the body.

pIC50: −log10 of the molar value. Values joined by “and” are separate entries in the source; they are usually repeats but may differ in a detail not shown here. Equal values may be shown once. Active and inactive are the calls of the source. No cut-off for these calls is given here.

Data set [1] is described as follows: Cytotoxicity against HEK-Blue hTLR4 cells incubated for 24 hrs by CCK8 assay. The format is toxicity, cell-based. The following applies: human. Background: Tetrazolium dyes change colour on reduction, which living cells bring about.
Data set [2] concerns the target T1, Toll-like receptor 4 (Homo sapiens, UniProt O00206). In words: Inhibition of human TLR4 in LPS-stimulated HEK-Blue hTLR4 cells assessed as reduction in SEAP activity incubated for 24 hrs by microplate reader assay. The format is cell-based.
In data set [3] the target is T1, Toll-like receptor 4. In words: Inhibition of TLR4 (unknown origin) homodimerization.
In data set [4] the test system is Mus musculus. In words: Antiinflammatory activity in LPS-induced C57BL/6 mouse sepsis model assessed as reduction in TNFalpha mRNA expression at 5 mg/kg, ip preadministered with compound for 1 hr followed by LPS stimulation and measured after 15 hrs by RT-qPCR analysis. It is filed as functional, organism-based. The following applies: time 16.0 hrs. (Quantitative PCR measures a nucleic acid by following its amplification.)

Data set [5] in a line: Inhibition of TLR4 to MD2 (unknown origin) protein-protein interaction. Details: species or system Homo sapiens.
Data set [6] concerns Mus musculus. The experiment in a line: Antiinflammatory activity in LPS-induced C57BL/6 mouse sepsis model assessed as survival rate at 10 mg/kg, ip preadministered with compound for 1 hr followed by LPS stimulation and measured after 24 hrs. The following applies: time 25 hrs. It is filed as functional.
A short description of data set [7]: Half-life in C57BL/6 mouse at 10 mg/kg, ip measured upto 24 hrs. The format is ADME, organism-based. The following applies: in vivo.
A short description of data set [8]: AUC(0 to t) in C57BL/6 mouse at 10 mg/kg, ip measured upto 24 hrs. It is filed as ADME, organism-based. The following applies: in vivo.
Data set [9] can be described thus: Clearance in C57BL/6 mouse at 10 mg/kg, ip measured upto 24 hrs. The format is ADME, organism-based. The following applies: in vivo.
Data set [10] is described as follows: Cmax in C57BL/6 mouse at 10 mg/kg, ip measured upto 24 hrs. The format is ADME, organism-based. The following applies: in vivo.
The nature of data set [11]: Tmax in C57BL/6 mouse at 10 mg/kg, ip measured upto 24 hrs. The following applies: in vivo. The format is ADME, organism-based.
The nature of data set [12]: Apparent volume of distribution in C57BL/6 mouse at 10 mg/kg, ip measured upto 24 hrs. The following applies: in vivo. The format is ADME, organism-based.
Data set [13] in a line: MRT(0 to t) in C57BL/6 mouse at 10 mg/kg, ip measured upto 24 hrs. The format is ADME, organism-based. The following applies: in vivo.

T1 sequence (O00206 whole entry): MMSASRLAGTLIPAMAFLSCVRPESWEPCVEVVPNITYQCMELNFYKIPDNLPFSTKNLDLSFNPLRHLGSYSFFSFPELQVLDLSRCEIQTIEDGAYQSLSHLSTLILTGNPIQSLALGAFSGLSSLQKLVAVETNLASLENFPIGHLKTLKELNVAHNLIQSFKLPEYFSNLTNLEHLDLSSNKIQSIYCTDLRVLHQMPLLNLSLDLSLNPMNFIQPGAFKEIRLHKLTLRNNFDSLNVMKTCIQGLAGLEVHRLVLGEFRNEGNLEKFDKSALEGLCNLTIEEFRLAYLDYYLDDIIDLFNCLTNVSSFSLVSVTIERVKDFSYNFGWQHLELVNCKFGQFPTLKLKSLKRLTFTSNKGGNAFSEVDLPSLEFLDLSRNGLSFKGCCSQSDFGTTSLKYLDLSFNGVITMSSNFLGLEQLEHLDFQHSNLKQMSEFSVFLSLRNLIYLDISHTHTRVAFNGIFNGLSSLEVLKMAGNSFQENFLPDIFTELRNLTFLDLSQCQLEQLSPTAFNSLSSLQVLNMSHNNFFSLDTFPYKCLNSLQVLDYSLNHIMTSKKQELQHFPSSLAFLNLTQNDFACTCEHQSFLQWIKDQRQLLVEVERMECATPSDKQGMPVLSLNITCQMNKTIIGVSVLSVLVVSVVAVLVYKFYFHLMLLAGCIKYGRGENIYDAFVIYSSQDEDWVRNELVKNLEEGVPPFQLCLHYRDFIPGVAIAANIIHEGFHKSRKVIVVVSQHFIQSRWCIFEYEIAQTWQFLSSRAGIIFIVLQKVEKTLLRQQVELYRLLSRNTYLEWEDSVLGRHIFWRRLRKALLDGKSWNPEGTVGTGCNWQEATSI

Regarding `Cc1ccc(-c2cc(C(F)F)n3ncc(C(=O)N4CCC5(CC4)OCCO5)c3n2)cc1`, the half-maximal inhibitory concentration (IC50) at 24 h in [1] is greater than 50 µM. For the same compound, the pIC50 at Toll-like receptor 4 [2] and against Toll-like receptor 4 [3] was 4.85 throughout.
As to `C[C@@H]1C[C@H]2[C@@H]3CCC4=CC(=O)C=C[C@]4(C)[C@@]3(F)[C@@H](O)C[C@]2(C)[C@@]1(O)C(=O)CO`, the result in the data set on Mus musculus [4] was inactive.
In turn, `FC(F)c1cc(-c2ccc(Cl)cc2)nc2c(C(=S)N3C[C@H]4CCCC[C@H]4C3)cnn12` had an IC50 at 24 h in [1] greater than 50 µM. Moreover, the pIC50 at Toll-like receptor 4 [2] was less than 4.30.
Compound `CCOc1ccc(OCC(O)CN(C)Cc2c(C)nn(Cc3ccccc3Cl)c2C)cc1` (stereo not drawn) gave a pIC50 in data set [5] of 4.32.
`FC(F)c1cc(-c2ccc(Cl)cc2)nc2cc(C(=S)N3C[C@H]4CCCC[C@H]4C3)nn12` registered an IC50 at 24 h in data set [1] greater than 50 µM. For the same compound, the negative logarithm of the IC50 (pIC50) on Toll-like receptor 4 [2] is less than 4.30.
`Cc1ccc(-c2cc(C(F)(F)F)n3ncc(C(=O)N4CCC5(CC4)OCCO5)c3n2)cc1`: the IC50 at 24 h in data set [1] was greater than 50 µM. Moreover, the negative-log IC50 (pIC50) on Toll-like receptor 4 [2] was less than 4.30.
Consider `Cc1nn(Cc2ccccc2Cl)c(C)c1CN(C)CC(O)COc1ccc(Cl)cc1` (stereo not drawn), for which the pIC50 in [5] is 4.73.
`O=C(c1cnn2c(C(F)(F)F)cc(-c3ccc(Cl)cc3)nc12)N1CCC2(CC1)OCCO2` showed a concentration for half-maximal inhibition (IC50) at 24 h in [1] greater than 50 µM. Also, the negative logarithm of the IC50 (pIC50) on Toll-like receptor 4 [2] is less than 4.30.
For the compound `CC(=O)N1CCN(C(=O)c2cnn3c(C(F)F)cc(-c4ccc(Cl)cc4)nc23)CC1`, the IC50 at 24 h in data set [1] was greater than 50 µM. Besides, at Toll-like receptor 4 [2], the negative-log IC50 (pIC50) was less than 4.30.
`NC1CCN(C(=O)c2cnn3c(C(F)F)cc(-c4ccc(Cl)cc4)nc23)CC1`: in data set [1], the IC50 at 24 h is greater than 50 µM. Besides, the negative logarithm of the IC50 (pIC50) on Toll-like receptor 4 [2] is less than 4.30.
In the same order, the values of `O=C(c1cnn2c(O)cc(-c3ccc(Cl)cc3)nc12)N1CCC2(CC1)OCCO2` are greater than 50 µM and less than 4.30.
Compound `O=C(c1cnn2c(C(F)F)cc(-c3ccc(F)cc3)nc12)N1CCC2(CC1)OCCO2` registered an IC50 at 24 h in [1] greater than 50 µM. Also, the negative-log IC50 (pIC50) on Toll-like receptor 4 [2] is less than 4.30.
Compound `CC(C)(C)OC(=O)NC1CCN(C(=O)c2cnn3c(C(F)F)cc(-c4ccc(Cl)cc4)nc23)CC1` showed an IC50 at 24 h in [1] of 45.9 µM. The pIC50 on Toll-like receptor 4 [2] was 4.62.
In the same order, the values of `O=C(Oc1ccnc2c(Br)cccc12)c1cnn2c(C(F)F)cc(-c3ccc(Cl)cc3)nc12` are greater than 50 µM and 4.81.
In the case of `O=C(c1cnn2c(C(F)F)cc(-c3ccc(Cl)cc3)nc12)N1C[C@H]2CCCC[C@H]2C1`, the survival at 10 mg/kg in the data set with Mus musculus [6] turned out to be 60%. In data set [7], this compound gave a t1/2 of 2.74 h. In [8], this compound yielded an AUCt of 1560 ng·h/mL. Also, the CL in data set [9] is 107 mL/min/kg. Moreover, the Cmax in data set [10] was found to be 760 ng/mL. Moreover, the Tmax in data set [11] worked out at 0.333 h. The Vz in [12] was 25.4 L/kg. In addition, in data set [13], the mean residence time MRT last at 24 h was 2.55 h.
Compound `O=C(c1cnn2c(C(F)F)cc(-c3ccc(Cl)cn3)nc12)N1C[C@H]2CCCC[C@H]2C1` registered a 50% inhibitory concentration (IC50) at 24 h in data set [1] greater than 50 µM. The pIC50 at Toll-like receptor 4 [2] is 4.93.
Regarding `O=C(c1cnn2c(C(F)F)cc(-c3ccc(Cl)cc3)nc12)N1CCC2(CCCCC2)CC1`, the concentration for half-maximal inhibition (IC50) at 24 h in data set [1] was greater than 50 µM. For the same compound, the negative logarithm of the IC50 (pIC50) on Toll-like receptor 4 [2] was less than 4.30.
In the case of `CN1CCN(C(=O)c2cnn3c(C(F)F)cc(-c4ccc(Cl)cc4)nc23)CC1`, in data set [1], the IC50 at 24 h is greater than 50 µM. Further, on Toll-like receptor 4 [2], the pIC50 is 4.51.
On to `CCOC(=O)C1=CCCC[C@H]1S(=O)(=O)Nc1ccc(F)cc1Cl` [RESATORVID], for which the IC50 at 24 h in [1] was greater than 50 µM. The negative-log IC50 (pIC50) at Toll-like receptor 4 [2] was 7.33 and 7.22.
Consider `CC(C)(C)OC(=O)N1CCN(C(=O)c2cnn3c(C(F)F)cc(-c4ccc(Cl)cc4)nc23)CC1`, for which the IC50 at 24 h in [1] is greater than 50 µM. At Toll-like receptor 4 [2], the pIC50 is less than 4.30.
Take `O=C(c1cnn2c(C(F)F)cc(-c3ccc(Cl)cc3)nc12)N1CCC2(CC1)OCCO2`: the 50% inhibitory concentration (IC50) at 24 h in [1] was greater than 50 µM. The pIC50 on Toll-like receptor 4 [2] is 5.31.
In the same order, the values of `O=C(c1cnn2c(C(F)F)cc(-c3ccc(Cl)cc3)nc12)N1CCSCC1` are greater than 50 µM and less than 4.30.
`O=C(Nc1ccc(S(=O)(=O)NC2CC2)cc1)c1cnn2c(C(F)F)cc(-c3ccc(Cl)cc3)nc12`: the IC50 at 24 h in data set [1] is greater than 50 µM. On Toll-like receptor 4 [2], the pIC50 is 4.98.
`O=C(c1cnn2c1NC(c1ccc(Cl)cc1)CC2C(F)F)N1C[C@H]2CCCC[C@H]2C1` (stereo partly drawn) came in with an IC50 at 24 h in data set [1] greater than 50 µM. Further, at Toll-like receptor 4 [2], the negative-log IC50 (pIC50) was less than 4.30.
The matching figures for `COc1ccc(-c2cc(C(F)F)n3ncc(C(=O)N4CCC5(CC4)OCCO5)c3n2)cc1OC`: greater than 50 µM and less than 4.30.
`O=C(c1cnn2c(C(F)F)cc(-c3ccc(Br)cc3)nc12)N1CCC2(CC1)OCCO2`: the 50% inhibitory concentration (IC50) at 24 h in data set [1] was greater than 50 µM. In addition, the pIC50 at Toll-like receptor 4 [2] is less than 4.30.
Compound `O=C(c1cnn2c(C(F)F)cc(C34CC5CC(CC(C5)C3)C4)nc12)N1C[C@H]2CCCC[C@H]2C1` gave a concentration for half-maximal inhibition (IC50) at 24 h in data set [1] greater than 50 µM. In addition, the pIC50 on Toll-like receptor 4 [2] was less than 4.30.
